In patent publication US20230174484A1, “ANTAGONISTS OF GPR39 PROTEIN” (Oregon Health & Science University, priority 2020, published 2023) one finds Ki data, which are given here for 27 compounds.

This experiment concerns the target T1, human GPR39 receptor (Homo sapiens, UniProt O43194).
T1 construct: PC3 Cells, Expressing the Endogenous Human GPR39 Receptor; endogenous in cells; host or cells: PC3 (human prostate adenocarcinoma) cells
T1 sequence (O43194 1-453): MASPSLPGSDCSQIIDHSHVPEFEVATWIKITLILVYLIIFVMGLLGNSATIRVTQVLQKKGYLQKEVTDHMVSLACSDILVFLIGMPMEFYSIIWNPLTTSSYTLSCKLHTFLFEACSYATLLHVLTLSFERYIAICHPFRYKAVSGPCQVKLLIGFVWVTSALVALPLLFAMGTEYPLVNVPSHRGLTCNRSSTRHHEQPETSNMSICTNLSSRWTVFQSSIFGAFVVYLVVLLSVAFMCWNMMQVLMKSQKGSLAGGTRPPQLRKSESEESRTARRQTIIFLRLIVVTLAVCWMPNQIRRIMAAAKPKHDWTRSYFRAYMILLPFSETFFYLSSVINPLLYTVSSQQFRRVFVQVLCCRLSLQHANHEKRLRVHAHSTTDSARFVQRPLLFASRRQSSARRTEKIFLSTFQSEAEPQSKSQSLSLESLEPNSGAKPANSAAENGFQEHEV
The experiment is described as follows: Measurement of intracellular calcium response in PC3 cells (FLIPR), antagonism of the C3 agonist response. Format: cell-based. The conditions noted are these: functional pKi (modified Cheng-Prusoff), inhibition of the C3 (TC-G 1008) response at EC90, 30 μM ZnCl2, read-out: fpKi activity. In short, it runs like this: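 PC3 cells with endogenous human GPR39 were loaded with Calcium-6 and read by FLIPR, with compounds tested in buffer with 30 μM final ZnCl2 and 0.32% DMSO. Peak Ca2+ signal was scored as % inhibition of the EC90 C3 response, fitted by four-parameter logistic. Functional pKi was derived via the modified Cheng-Prusoff equation.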

The structures appear in SMILES notation. Where a name gives a salt, the structure may show the parent alone.

On to `CN1CCN(C(=O)c2ccc(NC(=O)C3CC3)cc2N2CCCC2)C(c2ccccc2F)C1` (single isomer, unassigned) [Example 84b, N-[4-[2-(2-fluorophenyl)-4-methylpiperazine-1-carbonyl]-3-pyrrolidin-1-ylphenyl]cyclopropanecarboxamide], for which the Ki fell in the range of 1260 to 6310 nM.
With `CN1CCN(C(=O)c2ccc(NC(=O)C3CC3)cc2N2CCC3(CCC3)C2)C(c2cccs2)C1` (racemic) [Example 85, N-[3-(6-azaspiro[3.4]octan-6-yl)-4-(4-methyl-2-thiophen-2-ylpiperazine-1-carbonyl)phenyl]Cyclopropanecarboxamide], the Ki was not above 50.1 nM.
For `CN1CCN(C(=O)c2ccc(NC(=O)C3CC3)cc2N2CCCC2)C(c2cnn(C)c2)C1` (racemic) [Example 87, N-[4-[4-methyl-2-(1-methylpyrazol-4-yl)piperazine-1-carbonyl]-3-pyrrolidin-1-ylphenyl]Cyclopropanecarboxamide], the Ki was 316 to 1000 nM.
For `O=C(Nc1ccc(C(=O)N2CCN3CCCC3C2)c(N2CCCCCC2)c1)C1CC1` (stereo not drawn) [Example 40, N-[3-(azepan-1-yl)-4-{octahydropyrrolo[1,2-a]pyrazine-2-carbonyl}phenyl] Cyclopropanecarboxamide], the Ki was in the range of 316 to 1000 nM.
The same measure for `CN1CCN(C(=O)c2ccc(NC(=O)C3CC3)cc2N2CCCC2)C(c2ccccc2F)C1` (single isomer, unassigned) [Example 84a, N-[4-[2-(2-fluorophenyl)-4-methylpiperazine-1-carbonyl]-3-pyrrolidin-1-ylphenyl]cyclopropanecarboxamide]: 63.1 to 251 nM.
The same measure for `COc1ccccc1CN1CCN(C(=O)c2ccc(NC(=O)C3CC3)cc2N2CCCCCC2)CC1` [Example 27, N-(3-(azepan-1-yl)-4-(4-(2-methoxybenzyl)piperazine-1-carbonyl)phenyl) cyclopropanecarboxamide]: 316 to 1000 nM; for `CC1CC(C)CN(c2cc(NC(=O)C3CC3)ccc2C(=O)N2CCN(C)CC2c2ccccc2)C1` (single isomer, unassigned) [Example 68b, Syn 2R or 2S N-[3-[3,5-dimethylpiperidin-1-yl]-4-(4-methyl-2-phenylpiperazine-1-carbonyl)phenyl] cyclopropanecarboxamide]: 316 to 1000 nM.
As for `CS(=O)(=O)N1CCN(C(=O)c2ccc(NC(=O)C3CC3)cc2N2CCCC2)C(c2ccccc2)C1` (stereo not drawn) [Example 215, N-[4-(4-methylsulfonyl-2-phenylpiperazine-1-carbonyl)-3-pyrrolidin-1-ylphenyl]cyclopropanecarboxamide], the Ki fell in the range of 63.1 to 251 nM.
With `CCCN1CCN(C(=O)c2ccc(NC(=O)C3CC3)cc2N2CCCCCC2)C(c2ccccc2)C1` (single isomer, unassigned) [Example 73b, N-[3-(azepan-1-yl)-4-(2-phenyl-4-propylpiperazine-1-carbonyl)phenyl]Cyclopropanecarboxamide], the Ki was 1260 to 6310 nM.
As to `CN1CCN(C(=O)c2ccc(NC(=O)C3CC3)nc2N2CCCC2)C(c2ccccc2)C1` (single isomer, unassigned) [Example 149a, (2R or 2S) N-[5-(4-methyl-2-phenylpiperazine-1-carbonyl)-6-pyrrolidin-1-ylpyridin-2-yl] cyclopropanecarboxamide], the Ki fell in the range of 63.1 to 251 nM.
The same measure for `CC(C)C1CCN(c2nc(NC(=O)C3CC3)ccc2C(=O)N2CCS(=O)(=O)CC2)C1` (racemic) [Example 142, N-[5-(1,1-dioxo-1,4-thiazinane-4-carbonyl)-6-(3-propan-2-ylpyrrolidin-1-yl)pyridin-2-yl]cyclopropanecarboxamide]: not above 50.1 nM; for `Cc1noc(C)c1CN1CCN(C(=O)c2ccc(NC(=O)C3CC3)cc2N2CCCCCC2)C(c2ccccc2)C1` (stereo not drawn) [Example 81, N-[3-(azepan-1-yl)-4-[4-[(3,5-dimethyl-1,2-oxazol-4-yl)methyl]-2-phenylpiperazine-1-carbonyl]phenyl]cyclopropanecarboxamide]: 316 to 1000 nM; for `CC1CC(C)CN(c2cc(NC(=O)C3CC3)ccc2C(=O)N2CCN(C)CC2c2ccccc2)C1` (single isomer, unassigned) [Example 68f, Syn 2R or 2S N-[3-[3,5-dimethylpiperidin-1-yl]-4-(4-methyl-2-phenylpiperazine-1-carbonyl)phenyl]cyclopropanecarboxamide hydrochloride]: not above 50.1 nM.
The same measure for `O=C(Nc1ccc(C(=O)N2CCN(Cc3ccc(F)cc3)CC2)c(N2CCCCCC2)c1)C1CC1` [Example 29, N-(3-(azepan-1-yl)-4-(4-(4-fluorobenzyl)piperazine-1-carbonyl)phenyl) Cyclopropanecarboxamide]: 63.1 to 251 nM.
The same measure for `CN1CCN(C(=O)c2ccc(NC(=O)C3CC3)cc2N2CCC3(COC3)C2)C(c2ccccc2)C1` (stereo not drawn) [Example 203, N-[4-(4-methyl-2-phenylpiperazine-1-carbonyl)-3-(2-oxa-7-azaspiro[3.4]octan-7-yl)phenyl]cyclopropanecarboxamide]: 316 to 1000 nM; for `CN1CCN(C(=O)c2ccc(NC(=O)C3CC3)cc2N2CCC(C(F)(F)F)C2)C(c2ccccc2)C1` (single isomer, unassigned) [Example 199a, (2S, 3R) or (2R, 3S) or (2R, 3R) or (2S, 3S) N-[4-(4-methyl-2-phenylpiperazine-1-carbonyl)-3-[3-(trifluoromethyl)pyrrolidin-1-yl]phenyl]cyclopropanecarboxamide]: not above 50.1 nM; for `CCCN1CCN(C(=O)c2ccc(NC(=O)C3CC3)cc2-c2ccccn2)CC1` [Example 11, N-(4-(4-propylpiperazine-1-carbonyl)-3-(pyridin-2-yl)phenyl)cyclopropanecarboxamide]: 316 to 1000 nM.
For the compound `CN1CCN(C(=O)c2ccc(NC(=O)C3CC3)cc2N2CCCC2)C(c2cccc(F)c2)C1` (single isomer, unassigned) [Example 88b, N-[4-[2-(3-fluorophenyl)-4-methylpiperazine-1-carbonyl]-3-pyrrolidin-1-ylphenyl]cyclopropanecarboxamide], the Ki was 1260 to 6310 nM.
The same measure for `CN1CCN(C(=O)c2ccc(NC(=O)C3CC3)cc2N2CCC(F)(F)C2)C(c2ccccc2)C1` (single isomer, unassigned) [Example 202b, N-[3-(3,3-difluoropyrrolidin-1-yl)-4-(2R or 2S)-4-methyl-2-phenylpiperazine-1-carbonyl)phenyl]cyclopropanecarboxamide]: not above 50.1 nM.
Turning to `CCCN1CCN(C(=O)c2ccc(NC(=O)C3CC3)cc2N2CCCOCC2)CC1` [Example 3, N-[3-(1,4-oxazepan-4-yl)-4-(4-propylpiperazine-1-carbonyl)phenyl]cyclopropanecarboxamide], the Ki was in the range of 316 to 1000 nM.
The same measure for `CN1CCN(C(=O)c2ccc(NC(=O)C3CC3)cc2N2CCCCC2)C(c2ccccc2)C1` (single isomer, unassigned) [Example 201a, N-[4-(4-methyl-(2R or 2S)-phenylpiperazine-1-carbonyl)-3-piperidin-1-ylphenyl]cyclopropanecarboxamide]: 63.1 to 251 nM.
For `CN1CCN(C(=O)c2ccc(NC(=O)C3CC3)cc2N2CCCC2)C(c2cccs2)C1` (single isomer, unassigned) [Example 86a, N-[4-(4-methyl-2-thiophen-2-ylpiperazine-1-carbonyl)-3-pyrrolidin-1-ylphenyl]cyclopropanecarboxamide], the Ki lay in the range of 1260 to 6310 nM.
In the case of `CN1CCN(C(=O)c2ccc(NC(=O)C3CC3)cc2N2CCCCCC2)C(c2ccsc2)C1` (single isomer, unassigned) [Example 70b, N-(3-(azepan-1-yl)-4-(4-methyl-2-(thiophen-3-yl)piperazine-1-carbonyl)phenyl)cyclopropane carboxamide], the Ki was not above 50.1 nM.
In the case of `CCCN1CCN(C(=O)c2ccc(NC(=O)C3CC3)cc2NC2CCCC2)CC1` [Example 20, N-[3-(cyclopentylamino)-4-(4-propylpiperazine-1-carbonyl)phenyl]cyclopropanecarboxamide], the Ki was 316 to 1000 nM.
Consider `CN1CCN(C(=O)c2ccc(NC(=O)C3CC3)cc2N2CCC(C(F)(F)F)C2)C(c2ccccc2)C1` (single isomer, unassigned) [Example 199c, (2S, 3R) or (2R, 3S) or (2R, 3R) or (2S, 3S) N-[4-(4-methyl-2-phenylpiperazine-1-carbonyl)-3-[3-(trifluoromethyl)pyrrolidin-1-yl]phenyl]cyclopropanecarboxamide], for which the Ki was in the range of 63.1 to 251 nM.
Turning to `CC1CC(C)CN(c2cc(NC(=O)C3CC3)ccc2C(=O)N2CCN(C)CC2c2ccccc2)C1` (single isomer, unassigned) [Example 68d, Anti N-[3-[3,5-dimethylpiperidin-1-yl]-4-(4-methyl-2-phenylpiperazine-1-carbonyl)phenyl]cyclopropanecarboxamide], the Ki was in the range of 63.1 to 251 nM.
Take `Cc1nnc(-c2ccc(C(=O)N3CCN(C)CC3c3ccccc3)c(N3CCCC3)c2)[nH]1` (racemic) [Example 150c, (4-methyl-2-phenylpiperazin-1-yl)-[4-(5-methyl-4H-1,2,4-triazol-3-yl)-2-pyrrolidin-1-ylphenyl]methanone]: the Ki lay within 63.1 to 251 nM.
